Measured values reported in patent US20180111893A1, “POLYCATIONIC AMPHIPHILES AND POLYMERS THEREOF AS ANTIMICROBIAL AGENTS AND METHODS USING SAME” (Temple University-Of The Commonwealth System of Higher …, priority 2015, published 2018).
Like-named read-outs stand apart in the source and are kept apart here. One block for each compound: values may come before it.

Columns and labels:
[1] = test system: Pseudomonas aeruginosa (PAO1); assay: Minimum inhibitory concentration (MIC); assay type: cell-based; conditions: Table 1
Procedure: (§1) As used herein, the term “minimum inhibitory concentration (MIC)” refers to the lowest concentration of an antimicrobial agent that will inhibit the visible growth of a microorganism after overnight incubation. MIC values against bacteria, for example, the Gram-positive Staphylococcus aureus and Enterococcus faecalis and the Gram-negative Escherichia coli and Pseudomonas aeruginosa were determined by standard methods. See also P. A. Wayne, Methods for Dilution Antimicrobial Tests for Bacteria that Grow Aerobically; Approved Standard, Ninth Edition, 2012, CLSI Document M07-A9, Vol. 32 No. 2, which is incorporated by reference herein in its entirety.
(§2) Compounds were serially diluted two-fold from a 10% DMSO/aqueous stock solution to yield twelve test concentrations. Overnight S. aureus, E. faecalis, E. coli, P. aeruginosa, CA-MRSA, and HA-MRSA cultures diluted to ca. 10^6 cfu/mL in Mueller-Hinton media and 100 μL were inoculated into each well of a U-bottom 96-well plate (BD Biosciences, BD351177) containing 100 μL of compound solution. Plates were incubated statically at 37° C. for 72 hours upon which time wells were evaluated visually for bacterial growth. The MIC was determined as the lowest concentration of compound resulting in no bacterial growth visible to the naked eye, based on the majority of three independent experiments. Positive and negative DMSO/aqueous solution and media controls were conducted for each trial. See Peng et al., 2011, Chem. Comm. 47:4896-4898.
as §2, with “trial.” for “trial. See Peng et al., 2011, Chem. Comm. 47:4896-4898.”

[2] = test system: Enterococcus faecalis (OG1RF); assay: Minimum inhibitory concentration (MIC); assay type: cell-based; conditions: Table 1
Procedure: as §1, §2
as §2, with “trial.” for “trial. See Peng et al., 2011, Chem. Comm. 47:4896-4898.”

[3] = test system: Escherichia coli (MC4100); assay: Minimum inhibitory concentration (MIC); assay type: cell-based; conditions: Table 1
Procedure: as §1, §2
as §2, with “trial.” for “trial. See Peng et al., 2011, Chem. Comm. 47:4896-4898.”

[4] = test system: Staphylococcus aureus (SA; MSSA SH1000); assay: Minimum inhibitory concentration (MIC); assay type: cell-based
Procedure: as §1, §2
as §2, with “trial.” for “trial. See Peng et al., 2011, Chem. Comm. 47:4896-4898.”

[5] = test system: Staphylococcus aureus (MSSA) biofilms; assay: Minimum biofilm eradication concentration (MBEC), regrowth assay; assay type: cell-based; design: MBEC MSSA: unit not given here; conditions: for MBEC v SA: Table 1; for MBEC MSSA: Table 5, regrowth OD under 0.1 (italics: OD < 0.5)
Procedure: (§3) A regrowth assay was used to establish the MBEC of a compound to evaluate the antibiofilm activity. See also H. Ceri, M. Olson, D. Morck, D. Storey, R. Read, A. Buret, B. Olson, Methods Enzymol. 2001, 337, 377, which is incorporated by reference herein in its entirety.
(§4) To each well of a flat-bottomed 96-well plate (Corning 3370), 8 μL of overnight bacterial culture was brought to a volume of 200 μL with fresh media (BHI for MSSA and MRSA). Plates were incubated statically for 24 hours at 37° C. to establish biofilms. After 24 hours, the wells were carefully emptied by inverting the plate and gently shaking. A pre-mixed solution of media and compound stock solution was added to each well and plates were incubated at 37° C. 16 hours after pre-established biofilms were treated with compound, the media from each well was removed, biofilms were washed three times with 200 μL PBS to remove planktonic cells, and biofilms were incubated overnight at 37° C. in 200 μL of fresh media to allow any viable cells to continue growing. The wells were then vigorously pipetted to resuspend the biofilm cells and the OD at 595 nm was measured using a plate reader (POLARstar Omega, BMG Labtech). Biofilms reaching a final OD of less than 0.1 were considered eradicated and the lowest concentration of antibiotic corresponded to the MBEC. Four replicates were completed for each concentration of compound as well as positive and negative controls.

[6] = test system: Enterococcus faecalis biofilms; assay: as above; assay type: cell-based; conditions: Table 1
Description: as §3

[7] = test system: MRSA biofilms (S. aureus USA300-0114); assay: as above; assay type: cell-based, Staphylococcus aureus; design: MBEC MRSA: unit not given here; conditions: for MBEC MRSA: Table 5, regrowth OD under 0.1 (italics: OD < 0.5); for MBEC v MRSA: Table 2, pre-formed MRSA biofilms
Procedure: as §3, §4

red blood cells = assay type: cell-based, sheep
Procedure: To date, synthesized compounds have been evaluated against planktonic bacteria (E. coli, S. aureus, P. aeruginosa, E. facaelis) and bacterial biofilms (E. facaelis, S. aureus, MRSA); new compounds are similarly assessed. All compounds are also evaluated via a hemolysis assay to assess their ability to lyse red blood cells (RBC) (Nagamune et al., 2000, Toxicology in Vitro 14:139-147). The assay is conducted following a known protocol to determine the concentration of compound that causes 20% of RBCs to be lysed. […] All compounds are benchmarked against three commercial antiseptics—benzalkonium chloride, DDAC, and CHX (FIG. 1).
Hemolysis assays were performed according to a known method (Peng et al., 2011, Chem. Comm. 47:4896-4898). Defibrinated sheep blood was purchased from Hemostat Labs (DSB030). Compounds representative of each class were serially diluted in sterile PBS from stock solutions and incubated with resuspended blood cells. The OD of the final suspensions were measured directly using plate reader. TritonX (1% by volume) served as a positive control (100% lysis marker) and sterile PBS served as a negative control (0% lysis marker).

[8] = test system: six bacteria (SA, HA-MRSA, CA-MRSA, EF, EC, PA); assay: MIC against the panel of bacteria tested; assay type: cell-based; conditions: FIG. 4 legend; range of MIC values
Procedure: as §1
The complete set of MIC values against six bacteria [Staphylococcus aureus (SA), hospital-acquired methicillin-resistant SA (HA-MRSA), community-acquired methicillin-resistant SA (CA-MRSA), Enterococcus faecalis (EF), Escherichia coli (EC), and Pseudomonas aeruginosa (PA)] is presented in Table 3, wherein multiQACs are grouped with their monoQAC counterparts. The dye-based QACs with greatest inhibition of the complete range of Gram-positive and Gram-negative bacteria featured bis- or tris-quaternization, with the optimal alkyl total ranging from 17-24 carbons. For example, comparison of two biscationic series -LMG-n,1 and LMG-n,n—evaluates the effect of total alkyl chain length in retention of efficacy against the more challenging CA-MRSA and the Gram-negative strains EC and PA.
as §2

[9] = test system: community-acquired methicillin-resistant Staphylococcus aureus CA-MRSA (USA300-0114); assay: Minimum inhibitory concentration (MIC); assay type: cell-based; conditions: Table 2; qac-bearing MRSA strain USA300-0114
Procedure: as §1, §2
as §2, with “trial.” for “trial. See Peng et al., 2011, Chem. Comm. 47:4896-4898.”

MIC v PA [1]: 4 µM
MIC v EF [2]: 2 µM
MIC v EC [3]: 1 µM
MIC v SA ([4]; Table 1): 1 µM
SMILES: CCCCCCCCCCCC[N+](C)(C)CCCN(C)CCC[N+](C)(C)CCCCCCCCCCCC [12(3)0(3)12]
MBEC v SA [5]: 37.5 µM
MBEC v EF [6]: 50 µM

MIC v PA [1]: 8 µM
MIC v EF [2]: 2 µM
MIC v EC [3]: 2 µM
MIC v SA ([4]; Table 1): 1 µM
SMILES: CCCCCCCCCCCC[N+](C)(C)CCC[N+](C)(C)CCC[N+](C)(C)CCCCCCCCCCCC [12(3)1(3)12]
MBEC v SA [5]: 50 µM
MBEC v EF [6]: 50 µM

SMILES: CCCCCCCCCCCCCCCC[N+]1(C)CCN(C)CCN(C)CC1.[Br-] [C-16,0,0]
MBEC MRSA [7]: >200
MBEC MSSA [5]: >200

SMILES: CCCCCCCCCCCCCCCC[N+]1(C)CC[N+](C)(C)CC[N+](C)(C)CC1 [C-16,1,1]
MBEC MRSA [7]: 200
MBEC MSSA [5]: 200

SMILES: CCCCCCCCCCCCCCCCCC[N+]1(C)CCN(C)CCN(C)CC1.[Br-] [C-18,0,0]
MBEC MRSA [7]: >200
MBEC MSSA [5]: 200

SMILES: CCCCCCCCCCCCCCCCCC[N+]1(C)CC[N+](C)(C)CC[N+](C)(C)CC1 [C-18,1,1]
MBEC MRSA [7]: >200
MBEC MSSA [5]: >200

SMILES: CCCCCCCCCCCCCCCCCCCC[N+]1(C)CCN(C)CCN(C)CC1.[Br-] [C-20,0,0]
MBEC MRSA [7]: >200
MBEC MSSA [5]: >200

SMILES: CCCCCCCCCCCCCCCCCCCC[N+]1(C)CC[N+](C)(C)CC[N+](C)(C)CC1 [C-20,1,1]
MBEC MRSA [7]: >200
MBEC MSSA [5]: >200

SMILES: CCCCCCCCCCCCCCCC[n+]1ccccc1 [Cetyl pyridinium chloride]
MBEC v MRSA [7]: 200 µM
Lysis20 (red blood cells; concentration at which 20% of RBCs are lysed): 8 µM
TI MRSA (red blood cells; therapeutic index, Lysis20/MIC v MRSA): 0.5
TI SA (red blood cells; therapeutic index, Lysis20/MIC v SA): 16

MIC v PA [1]: 2 µM
MIC v EF [2]: 1 µM
MIC v EC [3]: 1 µM
MIC v SA ([4]; Table 1): 1 µM
SMILES: CCCCCCCCCCCC[N+](C)(C)CCN(C)CCN(C)CC[N+](C)(C)CCCCCCCCCCCC [N4-12,0,0,12]
MBEC v SA [5]: 50 µM
MBEC v EF [6]: 75 µM

MIC v SA ([4]; Table 2, non-resistant S. aureus strain (SH1000)): 1 µM
MIC [8]: 1 to 2 µM
MIC v MRSA [9]: 1 µM
Lysis20 (red blood cells): 8 µM
TI MRSA (red blood cells): 8
TI SA (red blood cells): 8
SMILES: C=CC[N+](C)(CC[N+](C)(C)CCCCCCCCCCCC)CC[N+](C)(CC=C)CC[N+](C)(C)CCCCCCCCCCCC (centres unmarked) [N4-12,allyl,allyl,12]
MBEC v MRSA [7]: 150 µM
